Article PMC4057681, “Antenna-Specific Glutathione S-Transferase in Male Silkmoth Bombyx mori” (International Journal of Molecular Sciences, 2014)

Tested on: T1, BmGSTD4
T1 construct: 245 aa precursor; signal peptide (22 aa) and the first two mature residues (Gly, Pro) removed; p28 vector (from pET28a), nickel column, E. coli Rosetta (DE3); about 26 kDa on SDS-PAGE; mature calculated 25,518 Da; by translation of printed primers: precursor begins MLTASVLG, construct begins (M)KKLVAPIK, C-terminus FINKDDE
Assay: spectrophotometric GSH conjugation at […] nm, steady-state kinetics
Type: biochemical, Bombyx mori
Details: 1 mM GSH, 0.1 M phosphate buffer pH 6.5

Structure (SMILES): O=[N+]([O-])c1ccc(Cl)c([N+](=O)[O-])c1 [CDNB, 1-chloro-2,4-dinitrobenzene]
- Km: 20 µM
